Structures are written as SMILES.

Data set [1] concerns the target T1, Substance-P receptor (Homo sapiens, UniProt P25103). Kind of data set: Binding affinity against human cloned Tachykinin receptor 1 expressed in MEL cells. Type of data set: cell-based.
For data set [2], the target named is T2, Neuromedin-K receptor (Homo sapiens, UniProt P29371).
T2 sequence (P29371 whole entry): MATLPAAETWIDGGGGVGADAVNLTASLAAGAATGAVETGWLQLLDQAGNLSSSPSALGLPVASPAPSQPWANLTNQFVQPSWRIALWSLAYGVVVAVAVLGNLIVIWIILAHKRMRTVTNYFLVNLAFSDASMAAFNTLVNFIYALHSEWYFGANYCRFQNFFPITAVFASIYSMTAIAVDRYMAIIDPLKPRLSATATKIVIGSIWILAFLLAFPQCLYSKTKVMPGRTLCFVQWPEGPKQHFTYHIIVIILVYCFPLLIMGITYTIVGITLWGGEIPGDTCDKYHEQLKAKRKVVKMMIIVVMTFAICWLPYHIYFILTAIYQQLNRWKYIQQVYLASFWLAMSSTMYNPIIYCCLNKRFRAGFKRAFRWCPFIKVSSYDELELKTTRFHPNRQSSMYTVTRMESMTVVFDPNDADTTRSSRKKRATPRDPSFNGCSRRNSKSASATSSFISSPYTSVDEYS
Nature of the data set: Binding affinity against human cloned Tachykinin receptor 3 expressed in MEL cells. The class given is cell-based.

Data set [3] concerns the target T3, Substance-K receptor (Oryctolagus cuniculus) (UniProt P79218).
T3 sequence (whole entry): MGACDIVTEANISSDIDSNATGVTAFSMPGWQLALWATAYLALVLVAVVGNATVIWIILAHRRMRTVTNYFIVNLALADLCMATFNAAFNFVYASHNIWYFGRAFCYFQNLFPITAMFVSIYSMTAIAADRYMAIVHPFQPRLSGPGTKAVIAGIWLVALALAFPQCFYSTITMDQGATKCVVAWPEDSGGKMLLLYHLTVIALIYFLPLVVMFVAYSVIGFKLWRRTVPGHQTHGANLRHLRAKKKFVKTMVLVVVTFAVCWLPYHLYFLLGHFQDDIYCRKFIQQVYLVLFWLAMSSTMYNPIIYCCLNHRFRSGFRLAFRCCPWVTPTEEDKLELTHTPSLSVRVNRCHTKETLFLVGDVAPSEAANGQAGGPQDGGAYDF
Kind of data set: Binding constant towards Tachykinin receptor 2 using BANK as agonist on rabbit pulmonary artery tissues.

Data set [4] deals with T4, Substance-K receptor (Homo sapiens, UniProt P21452).
T4 sequence (P21452 whole entry): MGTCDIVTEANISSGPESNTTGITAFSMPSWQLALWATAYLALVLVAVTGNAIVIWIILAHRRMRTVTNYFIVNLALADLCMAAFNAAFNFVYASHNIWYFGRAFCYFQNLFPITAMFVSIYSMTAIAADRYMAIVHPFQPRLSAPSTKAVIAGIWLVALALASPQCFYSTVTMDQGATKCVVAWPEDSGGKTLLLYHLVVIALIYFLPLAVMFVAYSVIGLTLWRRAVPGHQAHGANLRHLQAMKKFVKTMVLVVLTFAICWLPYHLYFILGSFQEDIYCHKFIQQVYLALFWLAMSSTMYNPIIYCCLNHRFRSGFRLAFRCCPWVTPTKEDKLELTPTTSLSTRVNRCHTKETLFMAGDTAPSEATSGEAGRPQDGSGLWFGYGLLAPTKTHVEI
Nature of the data set: Binding affinity against human cloned Tachykinin receptor 2 expressed in MEL cells. The class given is cell-based.

Data set [5] addresses T5, Substance-K receptor (Homo sapiens) (UniProt P21452).
T5 sequence (whole entry): T4 sequence (P21452 whole entry)
Particulars: Bronchus.
Description: Binding constant towards Tachykinin receptor 2 using NKA as agonist on human bronchus

For data set [6], the target named is T1, Substance-P receptor. Conditions: Artery.
Description: (§1) Binding constant towards Tachykinin receptor 1 using ASMSP as agonist on human pulmonary artery tissues
In data set [7] the target is T1, Substance-P receptor. Conditions: Artery. This is another data set of the same source.
Description: as §1
Data set [8] is described as follows: Plasma clearance in rat at a dose of 10 uM/kg in rat was determined. Type of data set: ADME, organism-based. Particulars: read-out: Clp.
Data set [9] is described as follows: Bioavailability by oral administration at a dose of 10 uM/kg in dog was determined. The class given is ADME, organism-based, Canis lupus familiaris. Conditions: in vivo, read-out: Bioavailabiility.
The nature of data set [10]: Half life period at a dose of 10 uM/kg in rat was determined. The class given is ADME, organism-based. Particulars: in vivo.
A short description of data set [11]: Maximum concentration by oral administration at a dose of 100 umol/kg in rat was determined. The class given is ADME, organism-based. Also noted: dose 100 umol/kg, route oral. Particulars: in vivo.
The test system of data set [12] is Rattus norvegicus. Nature of the data set: Area under curve by oral administration at a dose of 100 uM/kg in rat was determined. Type of data set: ADME, organism-based. Conditions: in vivo.
Data set [13] concerns Canis familiaris. Nature of the data set: Area under curve by intravenous administration at a dose of 1 uM/kg in dog was determined. Type of data set: ADME, organism-based, Canis lupus familiaris. Conditions: in vivo.
Data set [14] is described as follows: Bioavailability by oral administration at a dose of 100 uM/kg in rat was determined. Type of data set: ADME, organism-based. Conditions: in vivo, read-out: Bioavailabiility.
The nature of data set [15]: Half-life period by oral administration at a dose of 10 uM/kg in dog was determined. Conditions: in vivo. Type of data set: ADME, organism-based, Canis lupus familiaris.
The nature of data set [16]: Half life period at a dose of 1 uM/kg in dog was determined. Type of data set: ADME, organism-based, Canis lupus familiaris. Conditions: in vivo.
Data set [17] concerns Canis familiaris. Nature of the data set: Area under curve by oral administration at a dose of 10 uM/kg in dog was determined. The class given is ADME, organism-based, Canis lupus familiaris. Particulars: in vivo.
The nature of data set [18]: Tmax by oral administration at a dose of 10 uM/kg in dog was determined. The class given is ADME, organism-based, Canis lupus familiaris. Conditions: in vivo.
Data set [19] is described as follows: Tmax by oral administration at a dose of 100 uM/kg in rat was determined. The class given is ADME, organism-based. Conditions: in vivo.
Data set [20] is described as follows: Volume distribution at a dose of 1 uM/kg in dog was determined. Type of data set: ADME, organism-based, Canis lupus familiaris. Particulars: in vivo, read-out: Vdss.
Data set [21] is described as follows: Volume distribution at a dose of 10 uM/kg in rat was determined. The class given is ADME, organism-based. Particulars: in vivo, read-out: Vdss.
A short description of data set [22]: Maximum concentration by oral administration at a dose of 10 umol/kg in dog was determined. The class given is ADME, organism-based, Canis lupus familiaris. Also noted: dose 10 umol/kg, route oral. Particulars: in vivo.
Data set [23] deals with Rattus norvegicus. Kind of data set: Area under curve by intravenous administration at a dose of 10 uM/kg in rat was determined. The class given is ADME, organism-based. Particulars: in vivo.

T1 sequence (P25103 whole entry): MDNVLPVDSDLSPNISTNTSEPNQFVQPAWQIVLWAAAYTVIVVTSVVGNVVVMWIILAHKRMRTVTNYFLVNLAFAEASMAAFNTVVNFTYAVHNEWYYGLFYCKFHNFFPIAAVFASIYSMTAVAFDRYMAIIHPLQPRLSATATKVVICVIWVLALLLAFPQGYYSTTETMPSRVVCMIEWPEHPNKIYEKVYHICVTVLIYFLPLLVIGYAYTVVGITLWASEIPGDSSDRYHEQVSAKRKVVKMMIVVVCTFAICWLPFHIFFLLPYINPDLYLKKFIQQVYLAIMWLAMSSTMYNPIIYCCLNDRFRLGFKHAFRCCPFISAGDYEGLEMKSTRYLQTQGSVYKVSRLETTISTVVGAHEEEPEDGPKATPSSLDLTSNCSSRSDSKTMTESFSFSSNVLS

`COc1cc(C(=O)N2CC[C@](CCN3CCC(C(N)=O)(c4ccccc4)CC3)(c3ccc(Cl)c(Cl)c3)C2)cc(OC)c1OC`: the Ki amounted to 0.3 nM in data set [1], 200 nM in data set [2] and 1 nM in data set [4]. In addition, the figures for the pKB in data set [3], in [5] and in data set [6] were 6.7, 6.4 and 6.9, respectively.

Take `CN(C[C@@H](CCN1CCC(c2ccccc2[S@+](C)[O-])CC1)c1ccc(Cl)c(Cl)c1)C(=O)c1cc(C#N)cc2ccccc12` (stereo in doubt) [listing 1 of 2 here]: the pKB came out at 8.26 in data set [3], 8.9 in data set [7] and 7.5 in [5].

In the case of `CN(C[C@@H](CCN1CCC(c2ccccc2[S@+](C)[O-])CC1)c1ccc(Cl)c(Cl)c1)C(=O)c1cc(C#N)cc2ccccc12` (stereo in doubt) [listing 2 of 2 here], the Ki in data set [1] was determined as 0.1 nM; in [2], 74 nM; in data set [4], 0.6 nM. Besides, the clearance in data set [8] came out at 32.6 mL/min/kg. Besides, the values for the bioavailability in data set [9] and in data set [14] were 18% and 9%, respectively. The half-life is 1.8 h in data set [10], 2.3 h in data set [15] and 3.8 h in data set [16]. Moreover, the Cmax was found to be 421 ng/mL in data set [11] and 364 ng/mL in data set [22]. Moreover, the AUC in [12] was 3010 ng·h/mL; in [13], 1100 ng·h/mL; in [17], 2000 ng·h/mL; in data set [23], 3200 ng·h/mL. Further, the Tmax in data set [18] and in data set [19] was 2 h throughout. In addition, the Vd in [20] stood at 2 L/kg; in data set [21], 3.7 L/kg.

What is called Ki is a measure of affinity in units of concentration, obtained from inhibition or displacement. In general, pKB refers to the KB on a negative log10 scale, so that one unit is a factor of ten. A low value points to a large KB. One may read the half-life as the time in which the quantity being followed falls by half. A word on the Cmax: it is the highest concentration seen after dosing. A word on the AUC: it is the area under the concentration-time curve, a measure of exposure. High values mean high exposure, low ones low exposure. As usually defined, the Tmax is the time from dosing to the highest level.

Source of the values: ChEMBL document CHEMBL1133817, “Discovery of novel, orally active dual NK1/NK2 antagonists” (Bioorg Med Chem Lett, 2001).
